# In patent US20130267533A1, “5HT1A AGONISTS FOR TREATMENT OF HIGH CHOLESTEROL” (FABRE-KRAMER PHARMACEUTICALS, INC., priority 2012, published 2013):
# Structures can show the parent of a compound that is named as a salt. Where two headings read alike, the source gives them in different places.
# Tests used:
# [1] = Plasma levels of 3-OH gepirone after gepirone treatment; format: in vivo; conditions: animals and humans treated with gepirone
# Description: 3-OH gepirone has the same receptor binding, therefore, it is theorized that 3-OH-gepirone accounts for at least some of the effect noted with gepirone.
# [2] = test system: post-synaptic receptors in the hippocampus; conditions: cited from earlier work
# [3] = test system: subjects with Major Depression; experiment: Non-fasting total cholesterol at baseline and 8 weeks in 10 clinical studies of Gepirone-ER, meta-analysis; format: in vivo, human; conditions: for cholesterol levels, SSRI vs placebo: paroxetine one study n=143 p=0.045, fluoxetine three studies n=295 p=0.014, FIG. 4
# Description: In 10 clinical studies of the antidepressant effects of Gepirone-ER comprised of 2302 subjects with Major Depression safety measurements included non-fasting measurements of cholesterol at baseline and at 8 weeks (endpoint). A JMP-7 one way ANOVA of the data provided results for individual studies which were then analyzed by meta-analysis. […] So, analysis of the effect of gepirone on cholesterol levels in the 40-59 year range was conducted.
# [4] = test system: MDD subjects over or under 200 mg/dL cholesterol; experiment: Gepirone-ER antidepressant efficacy (HAMD-17) by cholesterol level, 8 double-blind MDD studies; format: in vivo, human; conditions: for HAMD responders percent: responder = 50% decrease in HAMD-17
# Description: The effects of cholesterol on gepirone-ER efficacy was investigated. […] As such, it was expected that the results for gepirone to be similar to that of Fava. […] Corresponding placebo values were generated as well.
# The total population used was 10 times greater than the Fava Study addressed in the background section (Sonawalla S B, Papakostas G I, Petersen T J, Yeung A S, Smith M M, Sickinger A H, Gordon J, Israel J A, Tedlow J R, Lamon-Fava S, Fava M, Elevated cholesterol levels associated with nonresponse to fluoxetine treatment in major depressive disorder. Psychosomatics. 2002; 43:310-6). Using the cutoff value of 200 mg/dL, there were 1264 subjects above 200 mg/dL and 1225 subjects below. […] The respective average cholesterol levels were 234.3±29.7 and 169.9±21.2, similar to the Fava data.
# The results there compared by t-test of odds ratio programs. The results for gepirone were examiner in 8 MDD studies. The low cholesterol group treated with gepirone-ER had 41.2% responders compared to the high cholesterol treated group 43.3% responders, a […] favoring the high cholesterol group (p=0.58)(Table 2). When the gepirone ER and placebo groups (Table 2) are compared, the high cholesterol gepirone treated group is 13.6% better than placebo (p=0.002), whereas the difference between the low cholesterol gepirone and placebo group is 0.5%, (p=0.602). However, the over 200 placebo group is 11% less than the under 200 placebo group (p=0.004).
# [5] = pre-clinical tests; cited from earlier work
# depressed subjects = conditions: open label, cited from earlier work
# subjects with anxiety = experiment: Total cholesterol in random subset of 103 subjects from adatanserin study 790-210; format: in vivo, human
# Description: Adatanserin is another drug with similar properties. The studies done in adatanserin were largely done on anxiety, not depression. It was not known if the cholesterol levels in subjects with anxiety are elevated. (In the small sample studied below, the levels are not elevated). One paper in subjects with panic disorder claims that paroxetine treatment elevated plasma cholesterol (Kim E J, YU B-H, Increased Cholesterol Levels After Paroxetine Treatment in Patients with panic Disorder. J Clinical Psychopharmacol 2005; 25:597-599). However, to see if adatanserin might also have cholesterol lowering properties, the inventors of the present invention examined a random subset of 103 subjects from study 790-210.
smiles,measurement,setting,value
CC1(C)CC(=O)N(CCCCN2CCN(c3ncccn3)CC2)C(=O)C1O (centres unmarked) [3-OH gepirone],plasma levels of metabolite relative to gepirone,[1],greater than that of gepirone
same,type of agonism at post-synaptic receptors,[2],full agonism
"CC1(C)CC(=O)N(CCCCN2CCN(c3ncccn3)CC2)C(=O)C1 [Gepirone, 4,4-dimethyl-1-[4-[-(2-pyrimidinyl)-1-piperazinyl]-butyl]-2,6-piperidinedione hydrochloride]","average drop in total cholesterol, meta-analysis","[3]; 10 studies, p=0.016, FIG. 6",2.8 mg/dL
same,number of studies with lower total cholesterol levels,[3]; of 10 studies,7
same,change in cholesterol levels,"[3]; patients in the 40-59 year range, FIG. 7",-5 mg/dL
same,HAMD change from baseline Δ means ± SD,"[4]; cholesterol over 200 mg/dL, n=344, p=0.001 vs placebo",−9.58 ± 7.2
same,HAMD responders percent,"[4]; cholesterol over 200 mg/dL, n=344, p=0.002 vs placebo",43.3%
same,HAMD change from baseline Δ means ± SD,"[4]; cholesterol under 200 mg/dL, n=354, p=0.656 vs placebo",−9.48 ± 7.4
same,HAMD responders percent,"[4]; cholesterol under 200 mg/dL, n=354, p=0.602 vs placebo",41.2%
same,difference in responders vs placebo,"[4]; high cholesterol group (over 200 mg/dL), p=0.002",13.6%
same,"HAMD change from baseline, difference in means vs placebo","[4]; high cholesterol group, p=0.001",−1.77 points
same,difference in responders vs placebo,"[4]; low cholesterol group (under 200 mg/dL), p=0.602",0.5%
same,"HAMD change from baseline, standard difference in means vs placebo","[4]; low cholesterol group, p=0.656",−0.02 points
same,"HAMD change from baseline, over vs. under Δ(Δ means)","[4]; over 200 vs under 200 mg/dL, p=0.856",0.10
Fc1ccc([C@@H]2CCNC[C@H]2COc2ccc3c(c2)OCO3)cc1 [paroxetine],"cholesterol levels, SSRI vs placebo",[3],placebo statistically better than paroxetine
"c1cnc(N2CCNCC2)nc1 [1-PP, 1-(2-pyrimidinyl)piperazine]",antidepressant-like characteristics,[5],did not exhibit antidepressant-like characteristics
CNCCC(Oc1ccc(C(F)(F)F)cc1)c1ccccc1 (centres unmarked) [fluoxetine],"cholesterol levels, SSRI vs placebo",[3],placebo statistically better then fluoxetine
same,response rate (50% decrease from baseline HAMD-17),depressed subjects; cholesterol above 200 mg/dL,46%
same,response rate (50% decrease from baseline HAMD-17),depressed subjects; cholesterol below 200 mg/dL,54%
"O=C(NCCN1CCN(c2ncccn2)CC1)C12CC3CC(CC(C3)C1)C2 [Adatanserin, N-[2-[4-(2-pyrimidinyl)-1-piperazinyl]ethyl]tricyclo[3.3.1.1^3,7]decane-1-carboxamide]",Difference in cholesterol change between adatanserin and placebo,"subjects with anxiety; adatanserin n=76 vs placebo n=27, p=0.011",15.22 mg/dL
same,"Total Cholesterol after treatment, mean (SD)","subjects with anxiety; n=76, after treatment",197.46 (44.1) mg/dL
same,"Total Cholesterol at baseline, mean (SD)","subjects with anxiety; n=76, at baseline",204.46 (46.4) mg/dL
same,Change in Total Cholesterol,"subjects with anxiety; n=76, baseline to after treatment",-7.00 mg/dL
